{"source": "patent US20100234325A1", "about": "(priority 2009, published 2010)", "key": {"D54 tumor": {"tested_on": "D54 tumor", "conditions": "intraarterial or intravenous administration; cited from earlier work"}, "L1210 leukemia [1]": {"tested_on": "L1210 leukemia", "experiment": "intracerebrally implanted L1210 leukemia in vivo", "set-up": "species or system murine", "conditions": "for leukemia cell burden after therapy: highest non-toxic dose; for increase in lifespan (ILS): highest non-toxic doses"}, "D54": {"tested_on": "D54", "conditions": "intrathecal administration; cited from earlier work"}, "TE-671": {"tested_on": "TE-671", "conditions": "intrathecal administration; cited from earlier work"}, "[2]": {"tested_on": "human glioblastoma xenograft U-251", "assay_type": "in vivo"}, "MX-1 human breast tumor": {"tested_on": "MX-1 human breast tumor", "assay_type": "in vivo"}, "L1210 leukemia [3]": {"tested_on": "L1210 leukemia", "conditions": "intracerebral L1210 model, typical value; cited from earlier work"}, "[4]": {"conditions": "after 6 hours, ambient temperature, 31P-NMR"}, "L1210 leukemia [5]": {"tested_on": "L1210 leukemia", "conditions": "IP implant; cited from earlier work"}, "SF-268": {"tested_on": "SF-268", "conditions": "SF-268 glioma cell line", "source_text": "(§1) Additional in vitro studies vs. U251, D54 and MDA-MB-361 cells also included 4-HC."}, "SNB-7": {"tested_on": "SNB-7", "conditions": "SNB-7 glioma cell line", "source_text": "as §1"}, "SNB-19": {"tested_on": "SNB-19", "conditions": "SNB-19 glioma cell line", "source_text": "as §1"}}, "note": "Several values for one entry are separate records, joined by “and”; a condition that tells them apart may be missing. Equal values may be shown once. Read-outs that look alike come from different tables or passages of the source.", "data": [{"smiles": "O=P1(N(CCCl)CCCl)NC(OO)CCO1", "note": "(centres unmarked) [4-HC, 4-hydroperoxycyclophosphamide]", "values": [{"measurement": "activity against D54 tumor", "setting": "D54 tumor", "result": "active"}, {"measurement": "activity against intracerebrally implanted L1210 leukemia", "setting": "L1210 leukemia [1]; implant of 10^4 cells", "result": "essentially inactive"}, {"measurement": "activity against D54 brain tumor model", "setting": "D54", "result": "active"}, {"measurement": "activity against TE-671 brain tumor model", "setting": "TE-671", "result": "active"}]}, {"smiles": "O=NN(CCCl)C(=O)NCCCl", "note": "[BCNU, carmustine, reference compound]", "values": [{"measurement": "ILS", "setting": "[2]; in vivo", "result": "110-150% and 130%"}, {"measurement": "ILS", "setting": "MX-1 human breast tumor; in vivo", "result": 13, "unit": "%"}]}, {"smiles": "O=P1(N(CCCl)CCCl)NCCCO1", "note": "(centres unmarked) [CPA, cyclophosphamide, reference compound]", "values": [{"measurement": "leukemia cell burden after therapy", "setting": "L1210 leukemia [1]; implant of 10^4 cells", "result": "1.3×10^2 cells"}, {"measurement": "increase in lifespan (ILS)", "setting": "L1210 leukemia [1]; implant of 10^5 L1210 cells", "result": 37, "unit": "%"}, {"measurement": "highest non-toxic dose (typical)", "setting": "L1210 leukemia [3]", "result": "250 to 300", "unit": "mg/kg"}]}, {"smiles": "O=P1(N(CCCl)CCCl)NC(OOC2CCOP(=O)(N(CCCl)CCCl)N2)CCO1", "note": "(centres unmarked) [peroxyCPA, 4-peroxy-cyclophosphamide]", "values": [{"measurement": "leukemia cell burden after therapy", "setting": "L1210 leukemia [1]; implant of 10^4 cells", "result": "1.0×10^0 cells"}, {"measurement": "increase in lifespan (ILS) over controls", "setting": "L1210 leukemia [1]; implant of 10^4 cells, highest non-toxic dose (300 mg/kg)", "result": 85, "unit": "%"}, {"measurement": "reduction of leukemia cell burden relative to CPA", "setting": "L1210 leukemia [1]; implant of 10^5 L1210 cells", "result": "two orders of magnitude more"}, {"measurement": "increase in lifespan (ILS)", "setting": "L1210 leukemia [1]; implant of 10^5 L1210 cells", "result": 100, "unit": "%"}, {"measurement": "highest non-toxic dose", "setting": "L1210 leukemia [1]; intracerebral L1210 model", "result": 300, "unit": "mg/kg"}, {"measurement": "ILS", "setting": "[2]; IC-implanted U-251, one (first) study", "result": "300-350%"}, {"measurement": "ILS", "setting": "[2]; IC-implanted U-251, second study", "result": 180, "unit": "%"}, {"measurement": "remaining in human serum", "setting": "[4]", "result": 74, "unit": "%"}, {"measurement": "ILS", "setting": "MX-1 human breast tumor; IC-implanted MX-1", "result": 69, "unit": "%"}, {"measurement": "DNA crosslinking", "setting": "pBR322 DNA", "result": "crosslinks DNA"}, {"measurement": "activity against intraperitoneally-implanted L1210 leukemia", "setting": "L1210 leukemia [5]", "result": "curative activity"}, {"measurement": "in vitro activity compared to BCNU and temozolomide", "setting": "SF-268", "result": "superior activity"}, {"measurement": "in vitro activity compared to BCNU and temozolomide", "setting": "SNB-7", "result": "superior activity"}, {"measurement": "in vitro activity compared to BCNU and temozolomide", "setting": "SNB-19", "result": "superior activity"}]}]}
